The conditions of series [1]: Crystal; DTA.
Series [2] in a line: Molar enthalpy of transition or fusion. Conditions: Crystal 2; DSC.

Numbers after ± are expanded uncertainties.

Take `CCCCCCCCCCCCCCCCCCO` [1-octadecanol]: the Normal melting temperature in series [1] was determined as 58.10 ± 4 °C. Besides, the “Molar enthalpy of transition or fusion” value in series [2] amounted to 16 ± 0.335 kcal/mol.

For the origin of these results see the NIST ThermoML archive (doi:10.1016/j.tca.2018.03.014).
